Reference: ChEMBL document CHEMBL3885881, “DrugMatrix”

Organism: Rattus norvegicus
Experiment: DrugMatrix - Regimen: Daily Repeat
Type: toxicity, organism-based, Sprague-Dawley
Parameters: regimen Daily Repeat, gender Male, age 6-8 weeks
Conditions: in vivo, po, route oral GAVAGE, vehicle 100 % SALINE; for ABSOLUTE BASOPHIL / ABSOLUTE EOSINOPHIL / ABSOLUTE LYMPHOCYTE / ABSOLUTE MONOCYTE / ABSOLUTE SEGMENTED NEUTROPHIL / BASOPHIL / EOSINOPHIL / ERYTHROCYTE COUNT / HEMATOCRIT / HEMOGLOBIN / LEUKOCYTE COUNT / LYMPHOCYTE / MEAN CORPUSCULAR HEMOGLOBIN / MEAN CORPUSCULAR HEMOGLOBIN CONCENTRATION / MEAN CORPUSCULAR VOLUME / MONOCYTE / NEUTROPHIL / NUCLEATED RED BLOOD CELLS / PLATELET COUNT: tissue Blood; for ALANINE AMINOTRANSFERASE / ALBUMIN / ALKALINE PHOSPHATASE / ASPARTATE AMINOTRANSFERASE / BLOOD UREA NITROGEN / CARBON DIOXIDE / CHLORIDE / CHOLESTEROL / CREATINE PHOSPHOKINASE / CREATININE / GLUCOSE / LACTATE DEHYDROGENASE / LIPASE / PHOSPHORUS / POTASSIUM / SODIUM / TOTAL BILIRUBIN / TOTAL PROTEIN / URIC ACID: tissue Plasma
[1] = 0 mg/kg, 72 h, dose level Control, time 3 day
[2] = 0 mg/kg, 120 h, dose level Control, time 5 day
[3] = 1200 mg/kg, 72 h, dose level High, time 3 day
[4] = 1200 mg/kg, 120 h, dose level High, time 5 day

CC(=O)OCC(CCn1cnc2cnc(N)nc21)COC(C)=O [FAMCICLOVIR]
ABSOLUTE BASOPHIL [1]: 0 CELLS/uL | ABSOLUTE EOSINOPHIL [1]: 37 CELLS/uL | ABSOLUTE LYMPHOCYTE [1]: 12359.33 CELLS/uL | ABSOLUTE MONOCYTE [1]: 122.67 CELLS/uL | ABSOLUTE SEGMENTED NEUTROPHIL [1]: 847.67 CELLS/uL | BASOPHIL [1]: 0% | EOSINOPHIL [1]: 0.33% | ERYTHROCYTE COUNT [1]: 5.75 x10E6/uL | HEMATOCRIT [1]: 36.08% | HEMOGLOBIN [1]: 14.07 G/DL | LEUKOCYTE COUNT [1]: 13.37 x10E3/uL | LYMPHOCYTE [1]: 92.5% | MEAN CORPUSCULAR HEMOGLOBIN [1]: 24.47 pg | MEAN CORPUSCULAR HEMOGLOBIN CONCENTRATION [1]: 38.98 G/DL | MEAN CORPUSCULAR VOLUME [1]: 62.78 fL | MONOCYTE [1]: 1% | NEUTROPHIL [1]: 6.17% | NUCLEATED RED BLOOD CELLS [1]: 0.17 /100WBC | PLATELET COUNT [1]: 1202.17 x10E3/uL | ALANINE AMINOTRANSFERASE [1]: 50.67 u/L | ALBUMIN [1]: 4.13 G/DL | ALKALINE PHOSPHATASE [1]: 356.33 u/L | ASPARTATE AMINOTRANSFERASE [1]: 78.17 u/L | BLOOD UREA NITROGEN [1]: 14.17 mg/dL | CARBON DIOXIDE [1]: 31.33 mmol/L | CHLORIDE [1]: 98.5 MEQ/L | CHOLESTEROL [1]: 76.5 mg/dL | CREATINE PHOSPHOKINASE [1]: 248.33 u/L | CREATININE [1]: 0.2 mg/dL | GLUCOSE [1]: 144 mg/dL | LACTATE DEHYDROGENASE [1]: 107 u/L | LIPASE [1]: 9.83 u/L | PHOSPHORUS [1]: 12.8 mg/dL | POTASSIUM [1]: 6.75 MEQ/L | SODIUM [1]: 142 MEQ/L | TOTAL BILIRUBIN [1]: 0.18 mg/dL | TOTAL PROTEIN [1]: 5.98 G/DL | URIC ACID [1]: 1.42 mg/dL | ABSOLUTE BASOPHIL [2]: 0 CELLS/uL | ABSOLUTE EOSINOPHIL [2]: 0 CELLS/uL | ABSOLUTE LYMPHOCYTE [2]: 8681.17 CELLS/uL | ABSOLUTE MONOCYTE [2]: 79.83 CELLS/uL | ABSOLUTE SEGMENTED NEUTROPHIL [2]: 689 CELLS/uL | BASOPHIL [2]: 0% | EOSINOPHIL [2]: 0% | ERYTHROCYTE COUNT [2]: 5.49 x10E6/uL | HEMATOCRIT [2]: 33.55% | HEMOGLOBIN [2]: 13.1 G/DL | LEUKOCYTE COUNT [2]: 9.45 x10E3/uL | LYMPHOCYTE [2]: 92.33% | MEAN CORPUSCULAR HEMOGLOBIN [2]: 23.92 pg | MEAN CORPUSCULAR HEMOGLOBIN CONCENTRATION [2]: 39.07 G/DL | MEAN CORPUSCULAR VOLUME [2]: 61.22 fL | MONOCYTE [2]: 0.67% | NEUTROPHIL [2]: 7% | NUCLEATED RED BLOOD CELLS [2]: 0.17 /100WBC | PLATELET COUNT [2]: 1001.17 x10E3/uL | ALANINE AMINOTRANSFERASE [2]: 49.33 u/L | ALBUMIN [2]: 4.07 G/DL | ALKALINE PHOSPHATASE [2]: 300.33 u/L | ASPARTATE AMINOTRANSFERASE [2]: 83.5 u/L | BLOOD UREA NITROGEN [2]: 16 mg/dL | CARBON DIOXIDE [2]: 29.67 mmol/L | CHLORIDE [2]: 100.5 MEQ/L | CHOLESTEROL [2]: 74.33 mg/dL | CREATINE PHOSPHOKINASE [2]: 489.67 u/L | CREATININE [2]: 0.35 mg/dL | GLUCOSE [2]: 151 mg/dL | LACTATE DEHYDROGENASE [2]: 133.67 u/L | LIPASE [2]: 11.17 u/L | PHOSPHORUS [2]: 10.88 mg/dL | POTASSIUM [2]: 5.5 MEQ/L | SODIUM [2]: 145.7 MEQ/L | TOTAL BILIRUBIN [2]: 0.2 mg/dL | TOTAL PROTEIN [2]: 6.05 G/DL | URIC ACID [2]: 0.68 mg/dL | ABSOLUTE BASOPHIL [3]: 0 CELLS/uL | ABSOLUTE EOSINOPHIL [3]: 0 CELLS/uL | ABSOLUTE LYMPHOCYTE [3]: 7020.67 CELLS/uL | ABSOLUTE MONOCYTE [3]: 111 CELLS/uL | ABSOLUTE SEGMENTED NEUTROPHIL [3]: 835 CELLS/uL | BASOPHIL [3]: 0% | EOSINOPHIL [3]: 0% | ERYTHROCYTE COUNT [3]: 5.23 x10E6/uL | HEMATOCRIT [3]: 33.07% | HEMOGLOBIN [3]: 13.03 G/DL | LEUKOCYTE COUNT [3]: 7.97 x10E3/uL | LYMPHOCYTE [3]: 88% | MEAN CORPUSCULAR HEMOGLOBIN [3]: 24.97 pg | MEAN CORPUSCULAR HEMOGLOBIN CONCENTRATION [3]: 39.4 G/DL | MEAN CORPUSCULAR VOLUME [3]: 63.33 fL | MONOCYTE [3]: 1.33% | NEUTROPHIL [3]: 10.67% | NUCLEATED RED BLOOD CELLS [3]: 0 /100WBC | PLATELET COUNT [3]: 1079.67 x10E3/uL | ALANINE AMINOTRANSFERASE [3]: 49 u/L | ALBUMIN [3]: 4.07 G/DL | ALKALINE PHOSPHATASE [3]: 334 u/L | ASPARTATE AMINOTRANSFERASE [3]: 80.33 u/L | BLOOD UREA NITROGEN [3]: 14.33 mg/dL | CARBON DIOXIDE [3]: 29.33 mmol/L | CHLORIDE [3]: 100.67 MEQ/L | CHOLESTEROL [3]: 77.33 mg/dL | CREATINE PHOSPHOKINASE [3]: 294 u/L | CREATININE [3]: 0.2 mg/dL | GLUCOSE [3]: 160 mg/dL | LACTATE DEHYDROGENASE [3]: 118.67 u/L | LIPASE [3]: 10 u/L | PHOSPHORUS [3]: 11.4 mg/dL | POTASSIUM [3]: 5.59 MEQ/L | SODIUM [3]: 144.23 MEQ/L | TOTAL BILIRUBIN [3]: 0.17 mg/dL | TOTAL PROTEIN [3]: 5.83 G/DL | URIC ACID [3]: 0.93 mg/dL | ABSOLUTE BASOPHIL [4]: 0 CELLS/uL | ABSOLUTE EOSINOPHIL [4]: 0 CELLS/uL | ABSOLUTE LYMPHOCYTE [4]: 9833.67 CELLS/uL | ABSOLUTE MONOCYTE [4]: 110.67 CELLS/uL | ABSOLUTE SEGMENTED NEUTROPHIL [4]: 822.33 CELLS/uL | BASOPHIL [4]: 0% | EOSINOPHIL [4]: 0% | ERYTHROCYTE COUNT [4]: 5.64 x10E6/uL | HEMATOCRIT [4]: 35.27% | HEMOGLOBIN [4]: 13.9 G/DL | LEUKOCYTE COUNT [4]: 10.77 x10E3/uL | LYMPHOCYTE [4]: 91.33% | MEAN CORPUSCULAR HEMOGLOBIN [4]: 24.73 pg | MEAN CORPUSCULAR HEMOGLOBIN CONCENTRATION [4]: 39.43 G/DL | MEAN CORPUSCULAR VOLUME [4]: 62.77 fL | MONOCYTE [4]: 1% | NEUTROPHIL [4]: 7.67% | NUCLEATED RED BLOOD CELLS [4]: 0.33 /100WBC | PLATELET COUNT [4]: 1147.67 x10E3/uL | ALANINE AMINOTRANSFERASE [4]: 54 u/L | ALBUMIN [4]: 4.03 G/DL | ALKALINE PHOSPHATASE [4]: 380.67 u/L | ASPARTATE AMINOTRANSFERASE [4]: 82.33 u/L | BLOOD UREA NITROGEN [4]: 13 mg/dL | CARBON DIOXIDE [4]: 29.67 mmol/L | CHLORIDE [4]: 100.67 MEQ/L | CHOLESTEROL [4]: 75.67 mg/dL | CREATINE PHOSPHOKINASE [4]: 286 u/L | CREATININE [4]: 0.31 mg/dL | GLUCOSE [4]: 147.33 mg/dL | LACTATE DEHYDROGENASE [4]: 106 u/L | LIPASE [4]: 9.33 u/L | PHOSPHORUS [4]: 11.2 mg/dL | POTASSIUM [4]: 5.79 MEQ/L | SODIUM [4]: 145.73 MEQ/L | TOTAL BILIRUBIN [4]: 0.17 mg/dL | TOTAL PROTEIN [4]: 5.77 G/DL | URIC ACID [4]: 0.73 mg/dL
